Assay results: patent US6486098B1, “Herbicidal phenoxypropionic acid N-alkyl-N-2-fluorophenyl amide compounds” (Dongbu Hannong Chemical Co. Ltd., priority 1999, dated 2002)

What was measured:
[1] = test system: SORBI (Common sorgum); assay: Leaf treatment test, common sorgum; assay type: in vivo, Andropogon sorghum; conditions: 14 days after treatment
Method: (§1) Seeds of rice, wheat, barley, corn, cotton, barnyard grass, common sorgum, large crabgrass and fall panicum were seeded at a pot with a surface area of 600 cm^2. […] 14 days after the treatment, the degree of damage to the plants was rated in % damage in comparison to the development of untreated control.

[2] = test system: PANDI (Fall panicum); assay: Leaf treatment test, fall panicum; assay type: in vivo, Panicum dichotomiflorum Michx; conditions: 14 days after treatment
Method: as §1

[3] = test system: TRZAW (Wheat); assay: Leaf treatment test, wheat; assay type: in vivo, Triticum aestivum L.; conditions: 14 days after treatment
Method: as §1

[4] = test system: ORYSA (Rice); assay: Leaf treatment test, rice; assay type: in vivo, Oryza sativa L. cv. Dongjin; conditions: 14 days after treatment
Method: as §1

[5] = test system: ZEAMX (Corn); assay: Leaf treatment test, corn; assay type: in vivo, Zea mays L.; conditions: 14 days after treatment
Method: as §1

[6] = test system: GOSHI (Cotton); assay: Leaf treatment test, cotton; assay type: in vivo, Gossypium; conditions: 14 days after treatment
Method: as §1

[7] = test system: DIGSA (Large crabgrass); assay: Leaf treatment test, large crabgrass; assay type: in vivo, Digitaria Sanguinalis (L.) SCOP; conditions: 14 days after treatment
Method: as §1

[8] = test system: GLXMA (Soy bean); assay: Leaf treatment test, soy bean; assay type: in vivo, Glycine max (L.) MERR; conditions: 14 days after treatment
[9] = test system: ECHCG (Barnyard grass); assay: Leaf treatment test, barnyard grass; assay type: in vivo, Echinochloa crus-galli Beauv. var. caudata Kitagawa; conditions: leaf treatment at three leaves, 14 days after treatment
Method: as §1

SMILES	degree of damage to the plants (% damage) ([1]; treated amount 0.025 kg/ha)	degree of damage to the plants (% damage) ([1]; treated amount 0.1 kg/ha)	degree of damage to the plants (% damage) ([1]; treated amount 0.4 kg/ha)	degree of damage to the plants (% damage) ([2]; treated amount 0.1 kg/ha)	degree of damage to the plants (% damage) ([2]; treated amount 0.4 kg/ha)	degree of damage to the plants (% damage) ([3]; treated amount 0.025 kg/ha)	degree of damage to the plants (% damage) ([3]; treated amount 0.1 kg/ha)	degree of damage to the plants (% damage) ([3]; treated amount 0.4 kg/ha)	degree of damage to the plants (% damage) ([4]; treated amount 0.025 kg/ha)	degree of damage to the plants (% damage) ([4]; treated amount 0.1 kg/ha)	degree of damage to the plants (% damage) ([4]; treated amount 0.4 kg/ha)	degree of damage to the plants (% damage) ([5]; treated amount 0.025 kg/ha)	degree of damage to the plants (% damage) ([5]; treated amount 0.1 kg/ha)	degree of damage to the plants (% damage) ([5]; treated amount 0.4 kg/ha)	degree of damage to the plants (% damage) ([6]; treated amount 0.025 kg/ha)	degree of damage to the plants (% damage) ([6]; treated amount 0.1 kg/ha)	degree of damage to the plants (% damage) ([6]; treated amount 0.4 kg/ha)	degree of damage to the plants (% damage) ([7]; treated amount 0.025 kg/ha)	degree of damage to the plants (% damage) ([7]; treated amount 0.1 kg/ha)	degree of damage to the plants (% damage) ([7]; treated amount 0.4 kg/ha)	also measured
CC(Oc1ccc(Oc2nc3ccc(Cl)cc3o2)cc1)C(=O)N(C)c1cc(F)ccc1F (centres unmarked) [Compound No. 9]	90%	100%	100%	100%	100%	0%	0%	0%	0%	0%	20%	0%	0%	100%	0%	0%	0%	100%	100%	100%	degree of damage to the plants (% damage) ([2]; treated amount 0.025 kg/ha): 90%; degree of damage to the plants (% damage) ([8]; treated amount 0.025 kg/ha): 0%; degree of damage to the plants (% damage) ([8]; treated amount 0.1 kg/ha): 0%; degree of damage to the plants (% damage) ([8]; treated amount 0.4 kg/ha): 0%; degree of damage to the plants (% damage) ([9]; treated amount 0.025 kg/ha): 70%; degree of damage to the plants (% damage) ([9]; treated amount 0.1 kg/ha): 80%; degree of damage to the plants (% damage) ([9]; treated amount 0.4 kg/ha): 80%
Cc1ccc(N(C)C(=O)C(C)Oc2ccc(Oc3nc4ccc(Cl)cc4o3)cc2)c(F)c1 (centres unmarked) [Compound No. 10]	30%	60%	100%	0%	70%	0%	0%	0%	0%	0%	0%	0%	0%	0%	0%	0%	0%	70%	95%	100%	degree of damage to the plants (% damage) ([2]; treated amount 0.025 kg/ha): 0%; degree of damage to the plants (% damage) ([8]; treated amount 0.025 kg/ha): 0%; degree of damage to the plants (% damage) ([8]; treated amount 0.1 kg/ha): 0%; degree of damage to the plants (% damage) ([8]; treated amount 0.4 kg/ha): 0%; degree of damage to the plants (% damage) ([9]; treated amount 0.025 kg/ha): 0%; degree of damage to the plants (% damage) ([9]; treated amount 0.1 kg/ha): 0%; degree of damage to the plants (% damage) ([9]; treated amount 0.4 kg/ha): 80%
COc1ccc(N(C)C(=O)C(C)Oc2ccc(Oc3nc4ccc(Cl)cc4o3)cc2)c(F)c1 (centres unmarked) [Compound No. 11]	0%	20%	70%	20%	40%	0%	0%	0%	0%	0%	0%	0%	0%	0%	0%	0%	0%	95%	95%	95%	degree of damage to the plants (% damage) ([8]; treated amount 0.025 kg/ha): 0%; degree of damage to the plants (% damage) ([8]; treated amount 0.1 kg/ha): 0%; degree of damage to the plants (% damage) ([8]; treated amount 0.4 kg/ha): 0%; degree of damage to the plants (% damage) ([9]; treated amount 0.025 kg/ha): 0%; degree of damage to the plants (% damage) ([9]; treated amount 0.1 kg/ha): 0%; degree of damage to the plants (% damage) ([9]; treated amount 0.4 kg/ha): 40%
